According to US12544575B2, “Bioelectric neuromodulation for hematopoiesis regulation during chemotherapy” (THE REGENTS OF THE UNIVERSITY OF CALIFORNIA, priority 2020, dated 2026):

Key:
Type in all cases: in vivo, rat
[1] = tested on: bone marrow of SD rats; experiment: Immunofluorescence staining of the bone marrow microenvironment (nestin, TH, CD31)
Method: The testing utilized immunofluorescence staining of nestin for mesenchymal stem cell, tyrosine hydroxylase (TH+) for sympathetic nerve, and CD31 for vascular to evaluate the alteration of bone marrow microenvironment after […] of carboplatin.
After two cycles of chemotherapy, exemplified as using carboplatin with different dosages of 40 mg/kg and 60 mg/kg, the bone marrow of the rats from the five experimental groups was analyzed by immunofluorescence to evaluate the alteration of the bone marrow microenvironment. The bone marrow tissue of rats was stained with nestin, TH and anti-CD31 antibody for mesenchymal stem cell, sympathetic nerve and endothelial cell, respectively.

[2] = tested on: SD rats; experiment: Chemotherapy-induced cytopenia, complete blood count of peripheral blood
Method: (§1) In FIG. 7A is seen white blood cell concentration for each of the five groups of rats which were tested over two cycles of testing. Male SD rats (weighing 350 to 400 g) were used for studying chemotherapy-induced cytopenia. The rats were divided into five experimental groups: control group; electrical stimulation group; carboplatin group; carboplatin+electrical stimulation (ES) group; and carboplatin+G-CSF group.
(§2) For each cycle of treatment, a single dose of carboplatin (e.g., 60 mg/kg) or vehicle (saline) was injected intraperitoneally on day 0. On day 2, electrical autonomic nerve stimulation was performed for a specified period (e.g., 60 minutes), or a single dose of G-CSF was administered on the rats according to the different experimental groups. In the example treatment each cycle of treatment is considered to be 28 days, however, a treatment cycle could span from one to eight weeks.
Blood samples for complete blood count (CBC) were collected in EDTA tubes on various days (day 0, 2, 7, 10, 14, 17, 21, and 28).

[3] = tested on: SD rats; experiment: Survival of rats after two cycles of carboplatin chemotherapy; details: after two cycles of carboplatin over a period of 60 days; carboplatin 60 mg/kg intraperitoneally on day 0, ES or G-CSF on day 2
Method: as §1, §2
FIG. 10 illustrates an example embodiment 590 of results indicating survival rates of the rats in the same five groups (control, ES, carboplatin, carboplatin+ES, and carboplatin+G-CSF) as previously described after two cycles of carboplatin over a period of 60 days.

[4] = after three cycles of carboplatin
[5] = after two cycles of carboplatin, 40 mg/kg and 60 mg/kg

SMILES: N.N.O=C([O-])C1(C(=O)[O-])CCC1.[Pt+2] [carboplatin]
- area of TH+/CD31 by immunofluorescence staining versus control group [1, 4]: lower levels
- expression of TH+ in the sympathetic nerve [1, 4]: reduced expression
- expression of nestin (mesenchymal stem cell) in comparison to the control group [1, 4]: more extensive expression
- area of the sympathetic nerve along with arteriole compared to the control group [1, 5]: significantly decreased
- mesenchymal stem cells compared to the control group [1, 5]: increased
- concentration of hemoglobin ([2]; after carboplatin administration, whether rescue by electrical stimulation or G-CSF): significantly decreased
- platelet count compared to the control group ([2]; day 10 of the first and second cycle): significantly reduced
- survival rate [3]: 37.5%
